Laboratory results reported in PMC10505147, “Ustilago maydis PR-1-like protein has evolved two distinct domains for dual virulence activities” (Nature Communications, 2023).

What was measured:
[1] = target: T1, CatB3 (Cathepsin B-like 3) (Zea mays, UniProt A0A804QEY3); format: biochemical; details: 0.5 mM inhibitor, substrate UmPR-1La-HA culture supernatant, 50 mM sodium acetate, 10 mM DTT, pH 5.5, 28 °C
T1 construct: gene LOC100283781; untagged, expressed with signal peptide in Nicotiana benthamiana by agroinfiltration, purified from apoplastic fluid by size exclusion
T1 sequence (A0A804QEY3 entry or part of it): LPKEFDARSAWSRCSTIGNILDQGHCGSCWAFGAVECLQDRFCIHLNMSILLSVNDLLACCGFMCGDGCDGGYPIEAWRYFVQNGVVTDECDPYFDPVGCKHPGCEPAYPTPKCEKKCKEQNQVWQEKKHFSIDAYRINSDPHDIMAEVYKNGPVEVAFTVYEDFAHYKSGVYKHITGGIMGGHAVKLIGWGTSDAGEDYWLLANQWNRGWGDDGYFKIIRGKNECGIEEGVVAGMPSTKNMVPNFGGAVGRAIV

UmPR-1La (PR-1La) = target: T2, UmPR-1La (PR-1La) (Mycosarcoma maydis, UniProt A0A0D1E5M0); test: intrinsic tryptophan fluorescence; format: binding; details: 0.25 µM protein, 50 mM sodium acetate pH 5.5, room temperature, 15 min
T2 construct: gene UMAG_01204; His-tagged full-length protein without signal peptide (PR-1La 24-279), expressed in E. coli Shuffle T7, Ni-NTA and size exclusion
T2 sequence (A0A0D1E5M0 entry or part of it): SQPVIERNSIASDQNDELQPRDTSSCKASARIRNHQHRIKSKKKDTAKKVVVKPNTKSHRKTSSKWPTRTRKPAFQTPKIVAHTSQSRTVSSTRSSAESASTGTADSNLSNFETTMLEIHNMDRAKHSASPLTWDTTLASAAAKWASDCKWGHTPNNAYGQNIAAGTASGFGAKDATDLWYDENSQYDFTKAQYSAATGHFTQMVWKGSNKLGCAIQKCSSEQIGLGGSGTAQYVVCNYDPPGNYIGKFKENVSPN

CC(C)C[C@H](NC(=O)[C@H]1O[C@@H]1C(=O)O)C(=O)NCCCCN=C(N)N [E64]
inhibition of UmPR-1La cleavage (immunoblot) [1]: The activity of CatB3 was blocked by E64 (Fig. 5b)

COc1cc(/C=C/C(=O)O)ccc1O [ferulic acid]
intrinsic tryptophan fluorescence (UmPR-1La (PR-1La); 5 µM or varied ligand, caveolin-binding motif site): the intrinsic fluorescence intensity of PR-1La decreased in an FA-concentration-dependent manner

COc1cc(/C=C/CO)ccc1O [coniferyl alcohol]
intrinsic tryptophan fluorescence (UmPR-1La (PR-1La)): both versions of the PR-1La proteins responded to CA by causing a shift
